# Measured values: ChEMBL document CHEMBL4041531, “Design, synthesis, and biological evaluation of novel 1-oxo-1,2,3,4-tetrahydropyrazino[1,2-a]indole-3-carboxamide analogs in MCF-7 and MDA-MB-468 breast cancer cell lines” (2017)
# The source made the active and inactive calls. The rule behind the calls is not given here.
# How the values were obtained:
# MDA-MB-468 [1] = assay: Cytotoxicity against gefitinib-resistant human MDA-MB-468 cells assessed as cell viability at 30 uM after 48 hrs by MTT assay relative to control; assay type: functional; details: MDA-MB-468, 48 h, read-out: Activity
# MCF7 [2] = assay: Cytotoxicity against human MCF7 cells assessed as cell viability at 30 uM after 48 hrs by MTT assay relative to control; assay type: functional; details: MCF7, 48 h, read-out: Activity
# MDA-MB-468 [3] = assay: Cytotoxicity against gefitinib-resistant human MDA-MB-468 cells assessed as reduction in cell viability after 48 hrs by MTT assay; assay type: functional; details: MDA-MB-468, 48 h
# MDA-MB-468 [4] = details: Homo sapiens, at 10 µM
# Description: Inhibition of EGFR in gefitinib-resistant human MDA-MB-468 cells assessed as reduction in Akt phosphorylation at 10 uM after 18 hrs by Western blot method
# MDA-MB-468 [5] = assay: Cytotoxicity against gefitinib-resistant human MDA-MB-468 cells assessed as cell viability at 10 uM after 48 hrs by MTT assay relative to control; assay type: functional; details: MDA-MB-468, 48 h, read-out: Activity
# MDA-MB-468 [6] = details: Homo sapiens, at 10 µM; remark: listed apart in the source
# Description: Inhibition of EGFR in gefitinib-resistant human MDA-MB-468 cells assessed as reduction in Akt phosphorylation at 10 uM after 6 hrs by Western blot method
# MCF7 [7] = assay: Cytotoxicity against human MCF7 cells assessed as cell viability at 10 uM after 48 hrs by MTT assay relative to control; assay type: functional; details: MCF7, 48 h, read-out: Activity
# MCF7 [8] = assay: Cytotoxicity against human MCF7 cells assessed as reduction in cell viability after 48 hrs by MTT assay; assay type: functional; details: MCF7, 48 h
# MCF7 [9] = assay: Potency index, ratio of gefitinib GI50 to compound GI50 for human MCF7 cells; assay type: functional
# MCF7 [10] = assay: Cytotoxicity against human MCF7 cells assessed as cell viability at 1 uM after 48 hrs by MTT assay relative to control; assay type: functional; details: MCF7, 48 h, read-out: Activity
# MCF7 [11] = assay: Cytotoxicity against human MCF7 cells assessed as cell viability at 3 uM after 48 hrs by MTT assay relative to control; assay type: functional; details: MCF7, 48 h, read-out: Activity
# MDA-MB-468 [12] = assay: Cytotoxicity against gefitinib-resistant human MDA-MB-468 cells assessed as cell viability at 1 uM after 48 hrs in presence of 3 uM gefitinib by MTT assay relative to control; assay type: functional
# MDA-MB-468 [13] = assay: Cytotoxicity against gefitinib-resistant human MDA-MB-468 cells assessed as cell viability at 10 uM after 48 hrs in presence of 10 uM gefitinib by MTT assay relative to control; assay type: functional; details: MDA-MB-468, 48 h, read-out: Activity
# MDA-MB-468 [14] = assay: Cytotoxicity against gefitinib-resistant human MDA-MB-468 cells assessed as cell viability at 3 uM after 48 hrs in presence of 10 uM gefitinib by MTT assay relative to control; assay type: functional
# MDA-MB-468 [15] = assay: Cytotoxicity against gefitinib-resistant human MDA-MB-468 cells assessed as cell viability at 3 uM after 48 hrs in presence of 1 uM gefitinib by MTT assay relative to control; assay type: functional
# MDA-MB-468 [16] = assay: Cytotoxicity against gefitinib-resistant human MDA-MB-468 cells assessed as cell viability at 10 uM after 48 hrs in presence of 1 uM gefitinib by MTT assay relative to control; assay type: functional
# MDA-MB-468 [17] = assay: Cytotoxicity against gefitinib-resistant human MDA-MB-468 cells assessed as cell viability at 3 uM after 48 hrs in presence of 3 uM gefitinib by MTT assay relative to control; assay type: functional; details: MDA-MB-468, 48 h, read-out: Activity
# MCF7 [18] = assay: Cytotoxicity against human MCF7 cells assessed as reduction in cell viability at 1 uM after 48 hrs in presence of 1 to 10 uM gefitinib by MTT assay; assay type: functional, cell-based
# MDA-MB-468 [19] = assay: Cytotoxicity against gefitinib-resistant human MDA-MB-468 cells assessed as cell viability at 1 uM after 48 hrs in presence of 10 uM gefitinib by MTT assay relative to control; assay type: functional
# [20] = Selectivity ratio of GI50 for human MCF7 cells to GI50 for gefitinib-resistant human MDA-MB-468 cells; assay type: functional
# MDA-MB-468 [21] = assay: Cytotoxicity against gefitinib-resistant human MDA-MB-468 cells assessed as cell viability at 10 uM after 48 hrs in presence of 3 uM gefitinib by MTT assay relative to control; assay type: functional
# MDA-MB-468 [22] = assay: Cytotoxicity against gefitinib-resistant human MDA-MB-468 cells assessed as cell viability at 1 uM after 48 hrs in presence of 1 uM gefitinib by MTT assay relative to control; assay type: functional; details: MDA-MB-468, 48 h, read-out: Activity
smiles,measurement,setting,value
Cc1ccc(CNC(=O)[C@@H]2Cn3c(cc4ccccc43)C(=O)N2)o1,viability at 30 µM,MDA-MB-468 [1],43%
same,viability at 30 µM,MCF7 [2],60.2%
C=CCNC(=O)[C@@H]1Cn2c(cc3ccccc32)C(=O)N1,viability at 30 µM,MDA-MB-468 [1],94.7%
same,viability at 30 µM,MCF7 [2],104%
O=C1N[C@H](C(=O)NCc2ccc(C(F)(F)F)cc2)Cn2c1cc1ccccc12,viability at 30 µM,MDA-MB-468 [1],70.5%
same,viability at 30 µM,MCF7 [2],60.2%
O=C1N[C@H](C(=O)NCc2ccccc2)Cn2c1cc1ccccc12,viability at 30 µM,MDA-MB-468 [1],48.8%
same,viability at 30 µM,MCF7 [2],71.4%
same,GI50,MDA-MB-468 [3],28.9 µM
Cc1ccc(CNC(=O)[C@@H]2Cn3c(cc4ccccc43)C(=O)N2)cc1,viability at 30 µM,MDA-MB-468 [1],61.5%
same,viability at 30 µM,MCF7 [2],68%
O=C(NCc1cccs1)[C@@H]1Cn2c(cc3ccccc32)C(=O)N1Cc1ccccc1,inhibition,MDA-MB-468 [4],Active
same,viability at 10 µM,MDA-MB-468 [5],18.5%
same,inhibition,MDA-MB-468 [6],Active
same,viability at 10 µM,MCF7 [7],35.8%
same,GI50,MCF7 [8],4.6 µM
same,GI50,MDA-MB-468 [3],3.8 µM
same,RatioGI50,MCF7 [9],4.5
COc1cc2ncnc(Nc3ccc(F)c(Cl)c3)c2cc1OCCCN1CCOCC1 [GEFITINIB],viability at 30 µM,MDA-MB-468 [1],6.7%
same,viability at 30 µM,MCF7 [2],16.2%
same,viability at 10 µM,MDA-MB-468 [5],49.1%
same,viability at 1 µM,MCF7 [10],73.1%
same,viability at 3 µM,MCF7 [11],72.6%
same,viability at 10 µM,MCF7 [7],89.7%
same,GI50,MCF7 [8],20.8 µM
same,GI50,MDA-MB-468 [3],9.7 µM
CCCNC(=O)[C@@H]1Cn2c(cc3ccccc32)C(=O)N1,viability at 30 µM,MDA-MB-468 [1],88%
same,viability at 30 µM,MCF7 [2],83.9%
O=C1N[C@H](C(=O)O)Cn2c1cc1ccccc12,viability at 30 µM,MDA-MB-468 [1],76.2%
same,viability at 30 µM,MCF7 [2],99.7%
O=C1N[C@H](C(=O)NCc2cccs2)Cn2c1cc1ccccc12,viability at 30 µM,MDA-MB-468 [1],39.2%
same,viability at 30 µM,MCF7 [2],61.7%
COC(=O)[C@H]1Cn2c(cc3ccccc32)C(=O)N1,viability at 30 µM,MDA-MB-468 [1],82.4%
same,viability at 30 µM,MCF7 [2],79.7%
O=C1N[C@H](C(=O)NCCc2ccc(O)cc2)Cn2c1cc1ccccc12,viability at 30 µM,MDA-MB-468 [1],63.1%
same,viability at 30 µM,MCF7 [2],85.5%
O=C(NCc1ccccc1)[C@@H]1Cn2c(cc3ccccc32)C(=O)N1Cc1ccccc1,viability at 10 µM,MDA-MB-468 [5],28%
same,viability at 10 µM,MCF7 [7],47.1%
same,GI50,MCF7 [8],9.6 µM
same,GI50,MDA-MB-468 [3],7.6 µM
O=C1N[C@@H](C(=O)NCc2ccco2)Cn2c1cc1ccccc12,viability at 30 µM,MDA-MB-468 [1],21.2%
same,viability at 30 µM,MCF7 [2],82.5%
same,GI50,MDA-MB-468 [3],15.9 µM
COc1ccc(CNC(=O)[C@@H]2Cn3c(cc4ccccc43)C(=O)N2)cc1,viability at 30 µM,MDA-MB-468 [1],74.7%
same,viability at 30 µM,MCF7 [2],68.8%
O=C1N[C@H](C(=O)NC2CCCCC2)Cn2c1cc1ccccc12,viability at 30 µM,MDA-MB-468 [1],73.1%
same,viability at 30 µM,MCF7 [2],80.7%
O=C1N[C@@H](C(=O)NCc2ccccc2)Cn2c1cc1ccccc12,viability at 30 µM,MDA-MB-468 [1],45%
same,viability at 30 µM,MCF7 [2],61.8%
same,GI50,MDA-MB-468 [3],24 µM
Cc1ccc(CNC(=O)[C@@H]2Cn3c(cc4ccccc43)C(=O)N2Cc2ccccc2)o1,viability at 10 µM,MDA-MB-468 [5],63.1%
same,viability at 10 µM,MCF7 [7],68.7%
O=C1N[C@H](C(=O)NCc2ccco2)Cn2c1cc1ccccc12,viability at 30 µM,MDA-MB-468 [1],39.7%
same,viability at 30 µM,MCF7 [2],62.1%
same,GI50,MDA-MB-468 [3],23.1 µM
CC(C)NC(=O)[C@@H]1Cn2c(cc3ccccc32)C(=O)N1,viability at 30 µM,MDA-MB-468 [1],88.1%
same,viability at 30 µM,MCF7 [2],84.4%
Nc1cccc(CNC(=O)[C@@H]2Cn3c(cc4ccccc43)C(=O)N2)c1,viability at 30 µM,MDA-MB-468 [1],67.7%
same,viability at 30 µM,MCF7 [2],70.5%
O=C(NCc1ccco1)[C@@H]1Cn2c(cc3ccccc32)C(=O)N1Cc1ccccc1,Activity,MDA-MB-468 [12],61%
same,viability at 10 µM,MDA-MB-468 [13],15.6%
same,Activity,MDA-MB-468 [14],23.8%
same,Activity,MDA-MB-468 [15],40.5%
same,Activity,MDA-MB-468 [16],24.3%
same,viability at 3 µM,MDA-MB-468 [17],34.3%
same,Activity,MCF7 [18],Active
same,inhibition,MDA-MB-468 [4],Active
same,Activity,MDA-MB-468 [19],40.8%
same,RatioGI50,[20],3.7
same,viability at 10 µM,MDA-MB-468 [5],23.3%
same,viability at 1 µM,MCF7 [10],93.6%
same,inhibition,MDA-MB-468 [6],Active
same,Activity,MDA-MB-468 [21],19.6%
same,viability at 3 µM,MCF7 [11],62.5%
same,viability at 10 µM,MCF7 [7],58.5%
same,GI50,MCF7 [8],19.3 µM
same,GI50,MDA-MB-468 [3],5.2 µM
same,viability at 1 µM,MDA-MB-468 [22],66.3%
C=CCN1C(=O)c2cc3ccccc3n2C[C@H]1C(=O)NCc1ccco1,viability at 10 µM,MDA-MB-468 [5],58.4%
same,viability at 10 µM,MCF7 [7],98.2%
same,GI50,MDA-MB-468 [3],18.5 µM
O=C1N[C@H](C(=O)NCc2cccc(C(F)(F)F)c2)Cn2c1cc1ccccc12,viability at 30 µM,MDA-MB-468 [1],62.4%
same,viability at 30 µM,MCF7 [2],59.1%
COC(=O)[C@@H]1Cn2c(cc3ccccc32)C(=O)N1,viability at 30 µM,MDA-MB-468 [1],102%
same,viability at 30 µM,MCF7 [2],85.1%
Nc1ccc(CNC(=O)[C@@H]2Cn3c(cc4ccccc43)C(=O)N2)cc1,viability at 30 µM,MDA-MB-468 [1],65.4%
same,viability at 30 µM,MCF7 [2],76%
O=C1N[C@H](C(=O)Nc2ccccc2)Cn2c1cc1ccccc12,viability at 30 µM,MDA-MB-468 [1],74.5%
same,viability at 30 µM,MCF7 [2],87.3%
CN1C(=O)c2cc3ccccc3n2C[C@H]1C(=O)NCc1ccco1,viability at 10 µM,MDA-MB-468 [5],56.1%
same,viability at 10 µM,MCF7 [7],54.1%
same,GI50,MDA-MB-468 [3],15 µM
O=C1N[C@H](C(=O)NCc2cccc(Cl)c2)Cn2c1cc1ccccc12,viability at 30 µM,MDA-MB-468 [1],34.8%
same,viability at 30 µM,MCF7 [2],61.7%
same,GI50,MDA-MB-468 [3],23.4 µM
COC(=O)[C@@H]1Cn2c(cc3ccccc32)C(=O)N1Cc1ccccc1,viability at 10 µM,MDA-MB-468 [5],98.8%
same,viability at 10 µM,MCF7 [7],92.6%
COc1cccc(CNC(=O)[C@@H]2Cn3c(cc4ccccc43)C(=O)N2)c1,viability at 30 µM,MDA-MB-468 [1],70.5%
same,viability at 30 µM,MCF7 [2],68.6%
O=C1N[C@H](C(=O)NCc2ccc(Cl)cc2)Cn2c1cc1ccccc12,viability at 30 µM,MDA-MB-468 [1],60.3%
same,viability at 30 µM,MCF7 [2],66.1%
O=C1N[C@H](C(=O)NCc2ccc(F)cc2)Cn2c1cc1ccccc12,viability at 30 µM,MDA-MB-468 [1],63.1%
same,viability at 30 µM,MCF7 [2],59.7%
O=C(NCc1cccc(Cl)c1)[C@@H]1Cn2c(cc3ccccc32)C(=O)N1Cc1ccccc1,viability at 10 µM,MDA-MB-468 [5],46.7%
same,viability at 10 µM,MCF7 [7],38.2%
same,GI50,MCF7 [8],8.3 µM
same,GI50,MDA-MB-468 [3],9.5 µM
CNC(=O)[C@@H]1Cn2c(cc3ccccc32)C(=O)N1,viability at 30 µM,MDA-MB-468 [1],82.6%
same,viability at 30 µM,MCF7 [2],77.5%
CCCCCCNC(=O)[C@@H]1Cn2c(cc3ccccc32)C(=O)N1,viability at 30 µM,MDA-MB-468 [1],61.8%
same,viability at 30 µM,MCF7 [2],71.2%
Cc1cccc(CNC(=O)[C@@H]2Cn3c(cc4ccccc43)C(=O)N2)c1,viability at 30 µM,MDA-MB-468 [1],66.3%
same,viability at 30 µM,MCF7 [2],78.1%
